Assays:
3T3-L1 adipocytes = test: JC-1 mitochondrial membrane potential (uncoupling) assay in 3T3-L1 adipocytes; format: cell-based, murine; conditions: for Monomer/Aggregate Ratio: 3T3-L1 adipocytes, test material 25 μg/mL, JC-1 fluorescence relative to JC-1 negative control, values >1.06 significant (p<0.05)
Source text: Objective—The objective of this experiment was to observe the dose-response effect of the mitochondrial uncoupler DNP on mitochondrial membrane potential in 3T3-L1 adipocytes using the lipophilic cationic dye, 5,5′,6,6′-tetrachloro-1,1′,3,3′-tetraethylbenzimidazolylcarbocyanine iodide (JC-1).
The Model—The 3T3-L1 murine fibroblast model is commonly used to study the potential effects of compounds on white adipose tissue in vitro. This cell line allows investigation of stimuli and mechanisms that regulate inflammatory mediators of cytokine secretion of the adipocyte. As preadipocytes, 3T3-L1 cells have a fibroblastic appearance. They replicate in culture until they form a confluent monolayer, after which cell-cell contact triggers Go/G1 growth arrest. Terminal differentiation of 3T3-L1 cells to adipocytes depends on proliferation of both pre- and post-confluent preadipocytes. Subsequent stimulation with 3-isobutyl-1-methylxanthane, dexamethasone, and high does of insulin (MDI) for two days prompts these cells to undergo post-confluent mitotic clonal expansion, exit the cell cycle, and begin to express adipocyte-specific genes. Approximately five days after induction of differentiation, more than 90% of the cells display the characteristic lipid-filled adipocyte phenotype. At this stage of differentiation, response to mitochondrial uncouplers such as DNP may be assessed.
Cell culture and Treatment—The murine fibroblast cell line 3T3-L1 was purchased from the American Type Culture Collection (Manassas, Va.) and sub-cultured according to instructions from the supplier. Prior to experiments, cells were cultured in DMEM containing 10% FBS-HI added 50 units penicillin/ml and 50 μg streptomycin/ml, and maintained in log phase prior to experimental setup. Cells were grown in a 5% CO2 humidified incubator at 37° C. Components of the pre-confluent medium included: (1) 10% FBS/DMEM (Fetal Bovine Serum/Dulbecco's Modified Eagle's Medium) containing 4.5 g glucose/L; (2) 50 U/ml penicillin; and (3) 50 μg/ml streptomycin. Growth medium was made by adding 50 ml of heat inactivated FBS and 5 ml of penicillin/streptomycin to 500 ml DMEM. This medium was stored at 4° C. Before use, the medium was warmed to 37° C. in a water bath.
[…] cells were seeded at an initial density of 6×10^4 cells/cm^2 in 24-well plates. For two days, the cells were allowed grow to reach confluence. Following confluence, the cells were forced to differentiate into adipocytes by the addition of differentiation medium; this medium consisted of (1) 10% FBS/DMEM (high glucose); (2) 0.5 mM methylisobutylxanthine; (3) 0.5 μM dexamethasone and (4) 10 μg/ml insulin (MDI medium). After three days, the medium was changed to post-differentiation medium consisting of 10 μg/ml insulin in 10% FBS/DMEM.
Treatment with Test Material 2,4-Dinitrophenol—On Day 6 post differentiation, DNP was dissolved in dimethyl sulfoxide (DMSO) and added to the culture medium to achieve concentrations of 500, 100, 50, 10 or 5 μM per column for 60 min at 37° C. JC-1 was then added to the test and negative control columns in 10 μL DMSO to achieve a final concentration of 5 μM and allowed to incubate at 37° C. for an additional 30 min. A DMSO and solvent plus JC-1 control were run concurrently with each experiment. A Packard Fluorocount spectrofluorometer (Model#BF10000, Meridan, Conn.) set at 560 nm excitation and 590 nm emission was used for quantification of aggregate fluorescence and at 485 nm excitation/530 emission for monomer fluorescence.
Measuring mitochondrial membrane potential changes (ΔΨm)—JC-1 (Sigma, St. Louis, Mo.) has advantages over other cationic dyes in that it can selectively enter into mitochondria and reversibly change color from green to red as the membrane potential increases. In healthy cells with high mitochondrial membrane potential (ΔΨm), JC-1 spontaneously forms complexes known as J-aggregates with intense red fluorescence. […]

[1] = cited from earlier work

In the case of `CCCCC[C@H](O)CC(=O)CCc1ccc(O)c(OC)c1` [6-Gingerol], the “Monomer/Aggregate Ratio” value (3T3-L1 adipocytes) is reported as 1.14.
With `COc1cc(/C=C/C(=O)CC(=O)/C=C/c2ccc(O)c(OC)c2)ccc1O` [Curcumin] the “Monomer/Aggregate Ratio” value (3T3-L1 adipocytes) was 3.89.
For `O=[N+]([O-])c1ccc(O)c([N+](=O)[O-])c1` [DNP, 2,4-dinitrophenol], the “Potency of positive control (decrease of ΔΨm)” value (3T3-L1 adipocytes; 18.4 μg DNP/mL) was 45%, the “Mean M/A (monomer/aggregate ratio) of positive control” value (3T3-L1 adipocytes; 100 μM 2,4-dinitrophenol (18.4 μg DNP/mL), 95% CI=1.34-1.39, n=200, over the experimental period) was 1.36 and the “Concentration at which monomer/aggregate ratio is significantly increased (p<0.05) relative to JC-1 negative controls” value (3T3-L1 adipocytes; 3T3-L1 adipocytes, 500, 100, 50, 10 or 5 μM for 60 min, FIG. 2) was ≥ 50 µM. The “Change of ΔΨm in 3T3-L1 adipocytes (in words)” value (3T3-L1 adipocytes; relative to negative JC-1 controls) was “dose-related decreased in ΔΨm”, the “Average fall in diastolic blood pressure” value ([1]; 30 hypertensive patients) was 12.6% and the “Average fall in systolic blood pressure” value ([1]; 30 hypertensive patients) was 9.4%. For the same compound, the Dose generally well-tolerated ([1]; approximately 5 mg/kg body weight, feeling of warmth and increased perspiration reported) was “up to 0.5 g”, the “Gradual increase in metabolic rate (average)” value ([1]; daily dosing of 3-5 mg/kg, maintained for a minimum of ten weeks) was 40% and the “Dose producing profuse sweating, increased heart rate, respiration rate and excessive body temperature rises” value ([1]; human, in vivo) was “Above 10 mg/kg”. The “Average increase in metabolic rate for each dosage increment of 0.1 g” value ([1]; obese patients) was 11%, the “Increase in resting metabolic rate” value ([1]; single doses of 3-5 mg/kg, within the first hour, maintained for 24 hours) was 20-30% and the “Effect on blood pressure or heart rate” value ([1]; therapeutic doses, normal patients) was “no effect on blood pressure or heart rate”.
In the case of `Oc1ccc(C=Cc2cc(O)cc(O)c2)cc1` [Resveratrol], the “Monomer/Aggregate Ratio” value (3T3-L1 adipocytes) is reported as 1.48.
For `C[C@@H]1O[C@@H](OC[C@H]2O[C@@H](Oc3c(-c4ccc(O)c(O)c4)oc4cc(O)cc(O)c4c3=O)[C@H](O)[C@@H](O)[C@@H]2O)[C@H](O)[C@H](O)[C@H]1O` [Rutin Powder, Rutin], the “Monomer/Aggregate Ratio” value (3T3-L1 adipocytes) was 1.37.
In the case of `CNCC(O)c1ccc(O)cc1` (centres unmarked) [Synephrine], the “Monomer/Aggregate Ratio” value (3T3-L1 adipocytes) is reported as 1.06.
